The values below come from US6288091A, “Antiherpes virus compounds and methods for their preparation and use” (Boehringer Ingelheim Ltd., priority 1999, dated 2001).

SMILES strings stand for the structures. Read-outs that look alike come from different tables or passages of the source.

As a reminder, the EC50 is the concentration giving half of the maximal effect. Read a high EC50 as weaker potency. A word on the IC50: it is the concentration at which inhibition is half-maximal. Read a high IC50 as weaker potency.

The nature of data set [1]: Inhibition of HCMV replication, plaque reduction assay (PRA, Hs-68 cells). The format is cell-based, Human Cytomegalovirus (HCMV). Particulars: human. A digest of the protocol: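 Hs-68 monolayers (80–90% confluent) were infected with ~50 PFU HCMV AD169 for 2 h at 37°, then given compound in DMEM/5% inactivated FBS, refreshed after 4 days and kept 4 more days. Plaques were counted after formaldehyde fixation and crystal violet staining. EC50 derives from percent plaque reduction versus untreated wells.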
(In general: Plaques are areas of infected cells; plaque reduction assays count them against a control.)

A further data set relates to HSV-1 strain F or KOS. In words: Inhibition of herpes simplex virus (HSV-1) replication in cell culture (BHK-21 cells, glycoprotein C ELISA). The format is cell-based. A digest of the protocol:
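BHK-21 clone 13 cells infected with HSV-1 F or KOS at MOI 0.05 PFU/cell for 1 h at 37°, washed, then treated with compound in α-MEM/2% FBS for 24 h. Late glycoprotein C quantified by ELISA (mAb C11, HRP/OPD, 450 nm); EC50 from % inhibition.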
Background: ELISA stands for enzyme-linked immunosorbent assay.

The next data set addresses T1, HSV-1 helicase-primase (Human herpesvirus 1, UniProt P10189+P10236).
T1 construct: made in house; host or cells: Sf21 insect cells triply infected with recombinant baculoviruses (UL5, UL8, UL52)
Nature of the data set: HSV-1 DNA-dependent ATPase assay (inhibition of HSV-1 helicase-primase). Format: biochemical. A digest of the protocol:
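Holoenzyme (UL5/UL8/UL52) expressed in baculovirus-infected Sf21 cells and purified, used at 3 μg/mL with 4 mM ATP and 25 μM primed M13 ssDNA in HEPES pH 7.5, 5.5 mM MgCl2, 3.3% DMSO. Incubated 20 min at 34°. Released phosphate read by malachite green at 650 nm, and activity taken from net absorbance with versus without inhibitor.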

The mark [2] stands for this setting: Group 1 Table 2 entries, read-out: Cytotoxic at this concentration (footnote, PRA CMV).
Setting [3] is: Human alphaherpesvirus 1, BHK-21, Group 1 Table 2 entries.
Setting [4] is: Group 1 Table 2 entries (Q = CH2).
The mark [5] stands for this setting: Group 1 Table 1 entries, read-out: Cytotoxic at this concentration (footnote *, PRA CMV).
The mark [6] stands for this setting: Human alphaherpesvirus 1, BHK-21, Group 1 Table 1 entries.

T1 sequence (P10192 whole entry): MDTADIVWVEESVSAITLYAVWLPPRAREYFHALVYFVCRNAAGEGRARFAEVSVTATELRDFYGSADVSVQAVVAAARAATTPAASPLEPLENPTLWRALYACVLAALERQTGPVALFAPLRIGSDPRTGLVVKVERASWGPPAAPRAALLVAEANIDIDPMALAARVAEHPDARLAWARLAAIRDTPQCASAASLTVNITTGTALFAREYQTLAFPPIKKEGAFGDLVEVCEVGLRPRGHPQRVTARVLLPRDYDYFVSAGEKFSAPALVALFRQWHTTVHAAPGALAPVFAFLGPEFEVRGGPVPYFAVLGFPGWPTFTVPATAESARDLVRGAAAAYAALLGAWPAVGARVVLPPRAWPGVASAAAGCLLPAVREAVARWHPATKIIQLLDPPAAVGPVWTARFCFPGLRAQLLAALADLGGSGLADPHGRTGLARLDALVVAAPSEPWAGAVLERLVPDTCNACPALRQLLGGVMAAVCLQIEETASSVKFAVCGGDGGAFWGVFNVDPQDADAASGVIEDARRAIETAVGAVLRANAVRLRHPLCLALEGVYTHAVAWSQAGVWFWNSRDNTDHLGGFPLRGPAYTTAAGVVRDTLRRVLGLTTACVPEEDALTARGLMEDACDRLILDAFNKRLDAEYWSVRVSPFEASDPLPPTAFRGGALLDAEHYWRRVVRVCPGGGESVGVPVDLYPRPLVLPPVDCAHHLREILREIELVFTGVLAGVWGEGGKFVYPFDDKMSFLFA
T1 sequence (P10236 whole entry): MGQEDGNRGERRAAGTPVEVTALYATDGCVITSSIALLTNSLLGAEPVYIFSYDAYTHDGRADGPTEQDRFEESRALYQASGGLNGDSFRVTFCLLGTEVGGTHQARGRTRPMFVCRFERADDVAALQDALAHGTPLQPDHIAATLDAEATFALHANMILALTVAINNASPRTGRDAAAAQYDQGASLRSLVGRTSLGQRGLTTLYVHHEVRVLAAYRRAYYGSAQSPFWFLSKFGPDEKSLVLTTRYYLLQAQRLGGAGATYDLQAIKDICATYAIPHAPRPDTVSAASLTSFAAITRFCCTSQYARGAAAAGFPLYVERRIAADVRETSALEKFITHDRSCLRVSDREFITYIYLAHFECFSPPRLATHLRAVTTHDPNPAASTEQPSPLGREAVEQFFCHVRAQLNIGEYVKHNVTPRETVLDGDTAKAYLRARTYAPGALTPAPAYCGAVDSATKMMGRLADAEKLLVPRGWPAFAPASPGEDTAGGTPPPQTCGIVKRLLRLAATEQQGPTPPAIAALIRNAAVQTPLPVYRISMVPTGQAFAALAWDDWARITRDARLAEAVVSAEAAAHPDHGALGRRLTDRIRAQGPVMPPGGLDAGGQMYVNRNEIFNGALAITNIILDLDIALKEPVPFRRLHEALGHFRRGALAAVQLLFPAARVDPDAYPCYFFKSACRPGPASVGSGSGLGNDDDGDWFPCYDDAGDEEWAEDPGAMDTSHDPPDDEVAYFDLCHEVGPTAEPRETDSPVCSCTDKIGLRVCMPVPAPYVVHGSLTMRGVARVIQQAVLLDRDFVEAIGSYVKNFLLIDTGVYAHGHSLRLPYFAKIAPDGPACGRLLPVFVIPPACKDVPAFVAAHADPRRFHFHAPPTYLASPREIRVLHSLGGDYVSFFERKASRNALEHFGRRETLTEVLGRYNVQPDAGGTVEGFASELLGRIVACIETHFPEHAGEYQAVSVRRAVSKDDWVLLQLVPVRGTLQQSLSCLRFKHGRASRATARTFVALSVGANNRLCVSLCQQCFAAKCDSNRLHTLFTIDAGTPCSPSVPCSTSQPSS
T1 sequence (P10189 whole entry): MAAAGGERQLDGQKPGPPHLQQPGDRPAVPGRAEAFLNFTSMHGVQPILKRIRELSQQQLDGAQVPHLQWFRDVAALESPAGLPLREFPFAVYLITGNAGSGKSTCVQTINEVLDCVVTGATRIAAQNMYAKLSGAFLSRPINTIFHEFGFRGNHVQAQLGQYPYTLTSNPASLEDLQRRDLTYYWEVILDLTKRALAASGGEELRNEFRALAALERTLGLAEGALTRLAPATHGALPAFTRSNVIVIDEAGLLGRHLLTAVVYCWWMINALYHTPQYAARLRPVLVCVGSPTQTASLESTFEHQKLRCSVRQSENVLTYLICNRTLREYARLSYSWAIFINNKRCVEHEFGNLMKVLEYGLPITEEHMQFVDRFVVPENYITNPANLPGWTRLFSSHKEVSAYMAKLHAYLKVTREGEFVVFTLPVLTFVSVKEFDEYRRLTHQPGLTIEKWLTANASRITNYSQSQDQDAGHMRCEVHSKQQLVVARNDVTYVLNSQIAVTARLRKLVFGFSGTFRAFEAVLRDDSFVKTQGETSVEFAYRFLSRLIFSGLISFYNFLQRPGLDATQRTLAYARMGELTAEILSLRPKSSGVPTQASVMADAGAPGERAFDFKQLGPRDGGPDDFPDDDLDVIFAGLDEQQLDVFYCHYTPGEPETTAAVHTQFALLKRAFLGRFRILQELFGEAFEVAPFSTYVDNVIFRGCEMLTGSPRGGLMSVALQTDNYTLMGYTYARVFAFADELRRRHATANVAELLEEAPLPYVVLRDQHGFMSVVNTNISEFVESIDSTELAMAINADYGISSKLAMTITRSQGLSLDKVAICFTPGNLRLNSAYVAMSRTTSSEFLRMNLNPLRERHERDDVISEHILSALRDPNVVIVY

For the compound `Nc1nc(-c2ccc(NC(=O)CCN(Cc3ccccc3)C(=O)OCc3ccccc3)cc2)cs1` [Example 16], in data set [1] (setting [2]), the MCC at 192 h was determined as 8 µM. In addition, in the data set with HSV-1 strain F or KOS (setting [3]), the EC50 turned out to be 2600 nM. For the same compound, on HSV-1 helicase-primase (setting [4]), 1800 nM corresponded to half-maximal inhibition (IC50).

For `Nc1nc(-c2ccc(NC(=O)CCNCC3CCCCC3)cc2)cs1` [Example 22], in data set [1] (setting [2]), the MCC at 192 h amounted to 6 µM. Besides, in the data set with HSV-1 strain F or KOS (setting [3]), the EC50 stood at 6000 nM. The IC50 against HSV-1 helicase-primase (setting [4]) stood at 29000 nM.

For the compound `Nc1nc(-c2ccc(NC(=O)CN(Cc3ccccc3)C(=O)c3ccccn3)cc2)cs1` [Example 27], the MCC at 192 h in data set [1] (setting [5]) turned out to be 36 µM. Further, the EC50 with HSV-1 strain F or KOS (setting [6]) turned out to be 280 nM. For the same compound, 1000 nM corresponded to half-maximal inhibition against HSV-1 helicase-primase (Group 1 Table 1 entries) (IC50).

On to `CCC(CC)C(=O)N(CC(=O)Nc1ccc(-c2csc(N)n2)cc1)Cc1ccccc1` [Example 104], for which the MCC at 192 h in data set [1] (setting [5]) came out at 18 µM. In the data set on HSV-1 strain F or KOS (setting [6]), it took 16 nM to reach a half-maximal effect (EC50). This compound displayed an IC50 on HSV-1 helicase-primase (Group 1 Table 1 entries) of 78 nM.

On to `CCCC(CCC)N(CC(=O)Nc1ccc(-c2csc(N)n2)cc1)C(=O)C1CCCCC1` [Example 82], for which the MCC at 192 h in data set [1] (setting [5]) is 7 µM. The compound further displayed an EC50 in the data set on HSV-1 strain F or KOS (setting [6]) of 60 nM. The same compound returned an IC50 against HSV-1 helicase-primase (Group 1 Table 1 entries) of 620 nM.

Consider `Nc1nc(-c2ccc(NC(=O)CNCCCc3ccccc3)cc2)cs1` [Example 3], for which the MCC at 192 h in data set [1] (setting [5]) is 14 µM. In the data set on HSV-1 strain F or KOS (setting [6]), this compound gave an EC50 of 18000 nM. In addition, half-maximal inhibition on HSV-1 helicase-primase (Group 1 Table 1 entries) (IC50) was put at 7600 nM.

As to `Nc1nc(-c2ccc(NC(=O)CN(CC3CCCCC3)C(=O)C3CCCC3)cc2)cs1` [Example 63], the MCC at 192 h in data set [1] (setting [5]) was 21 µM. The compound also displayed an EC50 with HSV-1 strain F or KOS (setting [6]) of 250 nM. The compound further gave an IC50 at HSV-1 helicase-primase (Group 1 Table 1 entries) of 780 nM.

`Nc1nc(-c2ccc(NC(=O)CCNCc3cccc(F)c3)cc2)cs1` [Example 4]: in data set [1] (setting [2]), the MCC at 192 h was found to be 3.7 µM. Further, a half-maximal response with HSV-1 strain F or KOS (setting [3]) (EC50) required 2200 nM. Moreover, the midpoint of inhibition against HSV-1 helicase-primase (setting [4]), the IC50, lay at 5200 nM.

On to `Nc1nc(-c2ccc(NC(=O)CCN(Cc3ccccc3)C(=O)C3CCCCC3)cc2)cs1` [Example 8], for which, in data set [1] (setting [2]), the MCC at 192 h came to 13 µM. This compound yielded an EC50 in the data set on HSV-1 strain F or KOS (setting [3]) of 1100 nM. The IC50 at HSV-1 helicase-primase (setting [4]) was 1700 nM.

For `CN(CC(=O)Nc1ccc(-c2csc(N)n2)cc1)C(=O)c1ccncc1` [Example 22], in data set [1] (setting [5]), the MCC at 192 h worked out at 110 µM. In addition, the concentration giving a half-maximal response (EC50) in the data set on HSV-1 strain F or KOS (setting [6]) stood at 1800 nM. At HSV-1 helicase-primase (Group 1 Table 1 entries), this compound displayed a half-inhibitory concentration (IC50) of 5900 nM.

On to `CCCC(CCC)NCCC(=O)Nc1ccc(-c2csc(N)n2)cc1` [Example 23], for which the MCC at 192 h in data set [1] (setting [2]) stood at 9 µM. This compound also gave an EC50 in the data set on HSV-1 strain F or KOS (setting [3]) of 6000 nM. At HSV-1 helicase-primase (setting [4]), this compound displayed an IC50 of 45000 nM.

Take `C[C@H](NCC(=O)Nc1ccc(-c2csc(N)n2)cc1)c1ccccc1` [Example 10]: the MCC at 192 h in data set [1] (setting [5]) stood at 30 µM. In the data set with HSV-1 strain F or KOS (setting [6]), this compound yielded a concentration giving a half-maximal response (EC50) of 2200 nM. On HSV-1 helicase-primase (Group 1 Table 1 entries), this compound showed an IC50 of 6900 nM.

For `Nc1nc(-c2ccc(NC(=O)CCNC3Cc4ccccc4C3)cc2)cs1` [Example 10], in data set [1] (setting [2]), the MCC at 192 h is 14 µM. The compound also displayed an EC50 with HSV-1 strain F or KOS (setting [3]) of 3900 nM. On HSV-1 helicase-primase (setting [4]), this compound displayed an IC50 of 21000 nM.

Consider `Nc1nc(-c2ccc(NC(=O)CN(Cc3ccccc3)C(=O)Cc3ccccn3)cc2)cs1` [Example 31], for which the EC50 with HSV-1 strain F or KOS (setting [6]) amounted to 400 nM. In addition, inhibition against HSV-1 helicase-primase (Group 1 Table 1 entries) was half-maximal at 1600 nM (IC50).

On to `C[C@H](NCCC(=O)Nc1ccc(-c2csc(N)n2)cc1)c1ccccc1` [Example 20], for which a half-maximal effect in the data set with HSV-1 strain F or KOS (setting [3]) (EC50) was put at 1300 nM. For the same compound, 7200 nM corresponded to half-maximal inhibition against HSV-1 helicase-primase (setting [4]) (IC50).

Take `CC(C)(C)OC(=O)NCC(=O)N(CC(=O)Nc1ccc(-c2csc(N)n2)cc1)Cc1ccccc1` [Example 72]: in the data set on HSV-1 strain F or KOS (setting [6]), the EC50 was found to be 670 nM. For the same compound, the IC50 on HSV-1 helicase-primase (Group 1 Table 1 entries) was 650 nM.
